Measurements from ChEMBL document CHEMBL3046540, “Statistically validated QSAR study of some antagonists of the human CCR5 receptor using least square support vector machine based on the genetic algorithm and factor analysis” (Med Chem Res, 2013).

The compounds below were run against C-C chemokine receptor type 5 (Homo sapiens, UniProt P51681) (assay: Antagonist activity at Homo sapiens (human) CCR5 receptor).
C-C chemokine receptor type 5, sequence (P51681 whole entry): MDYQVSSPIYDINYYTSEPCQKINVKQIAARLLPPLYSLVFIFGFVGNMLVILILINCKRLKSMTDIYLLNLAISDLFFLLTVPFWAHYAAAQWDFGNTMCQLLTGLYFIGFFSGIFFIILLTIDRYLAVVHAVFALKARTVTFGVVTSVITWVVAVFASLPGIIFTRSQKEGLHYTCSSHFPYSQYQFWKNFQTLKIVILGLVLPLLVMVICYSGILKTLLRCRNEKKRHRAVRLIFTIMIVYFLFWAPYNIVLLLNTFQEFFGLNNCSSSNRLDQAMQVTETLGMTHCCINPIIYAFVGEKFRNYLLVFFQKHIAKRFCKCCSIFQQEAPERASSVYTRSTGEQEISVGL
For `C=CCN(C(=O)c1ccc([N+](=O)[O-])cc1)C1CCN(CCC(CN(C)S(=O)(=O)c2ccccc2)c2ccccc2)CC1` (configuration not stated), the IC50 was 2 nM. `C=CCN(C(=O)Nc1ccc([N+](=O)[O-])cc1)C1CCN(CCC(CN(C)S(=O)(=O)c2ccccc2)c2ccccc2)CC1` (configuration not stated) was tested, and the IC50 was 0.759 nM. Compound `CCN(C(=O)NCc1ccccc1)C1CCN(CCC(CN(C)S(=O)(=O)c2ccccc2)c2ccccc2)CC1` (configuration not stated) has an IC50 of 100 nM. In the case of `CCCN(C(=O)NC)C1CCN(CCC(CN(C)S(=O)(=O)c2ccccc2)c2ccccc2)CC1` (configuration not stated), the IC50 is reported as 1000 nM. `CCCN(C(=O)OCc1cccc(C(N)=O)c1)C1CCN(CC[C@H](CN(C)S(=O)(=O)c2ccccc2)c2ccccc2)CC1` was tested, and the IC50 was 0.794 nM. `CCN(C(=O)OC)C1CCN(CC[C@H](CN(C)S(=O)(=O)c2ccccc2)c2cccc(Cl)c2)CC1` showed an IC50 of 39.8 nM. For `CN(CC(CCN1CCC(NC(=O)NCc2ccccc2)CC1)c1ccccc1)S(=O)(=O)c1ccccc1` (configuration not stated), the IC50 was 2.51 nM. In the case of `COC(=O)NC1CCN(CC[C@H](CN(C)S(=O)(=O)c2ccccc2)c2ccccc2)CC1`, the IC50 is reported as 1000 nM. `CCCN(C(=O)OCc1ccc(C(N)=O)cc1)C1CCN(CC[C@H](CN(C)S(=O)(=O)c2ccccc2)c2ccccc2)CC1` showed an IC50 of 3.02 nM. Work on `CCCN(C(=O)OCc1ccccc1C)C1CCN(CC[C@H](CN(C)S(=O)(=O)c2ccccc2)c2ccccc2)CC1` yielded an IC50 of 1.51 nM. `CCCN(C(=O)OCc1ccccc1)C1CCN(CC[C@H](CN(C)S(=O)(=O)c2ccccc2)c2ccccc2)CC1` was tested, and the IC50 was 3.98 nM. In the case of `CNC(=O)NC1CCN(CCC(CN(C)S(=O)(=O)c2ccccc2)c2ccccc2)CC1` (configuration not stated), the IC50 is reported as 120 nM.
